Holding throughout (type): physicochemical
The nature of series [1]: Dissolution of spray-dried indomethacin with SBA-15 in pH 6.8 phosphate buffer. The note with it: 900 mL of pH 6.8 phosphate buffer. How it is done: FIG. 15 illustrates dissolution profiles of spray-dried indomethacin with SBA-15 in powder form and tablet form, and a comparison with raw indomethacin crystal. (900 mL of pH 6.8 phosphate buffer, 50 mg spray-dried indomethacin with SBA-15 in powder form or tablet with 800 mg cornstarch at 1 ton press, raw crystal form is 25 mg).

Series [2] can be described thus: Storage stability of the amorphous form at 40° C./75% RH (XRD). The settings on record: same conditions (40° C./75% RH) for just one week. As to the method:
The storage stability was tested in severe storage condition of 75% relative humidity and temperature of 40° C., denoted as 40° C./75% RH.
A broad peak at 2-θ of 15-30° is typical in diffraction patterns of X-ray amorphous silica.
The amorphous state of these drugs formed by spray drying with mesoporous materials is stable after being subject to stress conditions of 40° C./75% RH for at least six months.

A short description of series [3]: Dissolution test of ibuprofen formulations (USP dissolution tester, online UV). The settings on record: 900 mL 0.1N HCl at 37° C., 100 rpm. As to the method:
The suspension was spray-dried in a Buchi Spray Drier B290. The inlet temperature was set to 81° C. and the outlet temperature was ˜50° C. The pump speed was set to “20”. […] Stirring speed is 100 rpm. Sample was taken by auto sampling system at interval of 5 min. UV reading was taken at wavelength 222 nm.
The dissolution profile was measured using VK7010 (Varian Co) USP dissolution tester with flow cell online UV-vis analysis system. Stirring rate is 100 rpm and vessel temperature is set at 37° C.
The dissolution is performed using the same method as in Example 1.

Take `COc1ccc2c(c1)c(CC(=O)O)c(C)n2C(=O)c1ccc(Cl)cc1` [commercial indomethacin, indomethacin]: the “dissolution within 15 min” value in series [1] turned out to be 25%.
Regarding `COc1ccc2c(c1)c(CC(=O)O)c(C)n2C(=O)c1ccc(Cl)cc1` [indomethacin], the “stability of amorphous form after storage” value in series [2] is recorded as “re-crystallized”.
Regarding `CC(C)Cc1ccc(C(C)C(=O)O)cc1` (stereo not shown) [pure ibuprofen crystal, ibuprofen], in series [3] (25 mg ibuprofen or equivalent, 15 min), the “Dissolution test data 15 min” value amounted to 17.5%. Besides, the “Dissolution test data 30 min” value in series [3] (25 mg ibuprofen or equivalent, 30 min) is reported as 25.6%. The “Dissolution test data 45 min” value in series [3] (25 mg ibuprofen or equivalent, 45 min) came out at 35.6%. Also, the “dissolved in 15 min” value in series [3] (powder form, 15 min) is on record as 17.5%. Moreover, the “dissolved within 15 min, tablet form” value in series [3] (tablet with 0.8 g cornstarch, 1 ton press, 15 min) was found to be 16.4%.

These data come from US8778401B2, “Mesoporous material excipients for poorly aqueous soluble ingredients” (Agency for Science, Technology and Research, priority 2008, dated 2014).
